In brackets after ≈: the same amount, converted by molar mass. Where a name gives a salt, the structure may show the parent alone. Read-outs that look alike come from different tables or passages of the source.
What was measured:
[1] = system: B. burgdorferi (growing, strain B31); assay: MIC determination, standard microdilution method; type: cell-based, Borrelia burgdorferi; conditions: for MIC: growing B. burgdorferi; for sensitivity of log phase / multiplying B. burgdorferi (words, FIG. 12): MIC test
[2] = system: stationary phase B. burgdorferi persisters (strain B31); assay: NCI compound library rescreen, epifluorescence microscope counting; conditions: for viability at 50 µM / viability at 20 µM: Borreliella burgdorferi, 168 h; for viability at 20 µM: read-out: Residual viable cells (%) 20 μM (epifluorescence microscope counting); for Residual viable cells (%) 20 μM (epifluorescence microscope counting) / Residual viable cells (%) 50 μM (epifluorescence microscope counting): seven day old stationary phase; for Residual viable cells (%) 20 μM (epifluorescence microscope counting) / Residual viable cells (epifluorescence microscope counting) / Residual viable cells (%) 50 μM (epifluorescence microscope counting): 7 days; for Residual viable cells (epifluorescence microscope counting) / Residual viable cells (%) 50 μM (epifluorescence microscope counting): 50 μM; for Residual viable cells (epifluorescence microscope counting): seven day old stationary phase culture
[3] = system: stationary phase B. burgdorferi persisters (strain B31); assay: NCI compound library screen, SYBR Green I/PI assay (plate reader); conditions: for viability at 20 µM / viability at 50 µM: Borreliella burgdorferi, 168 h; for Residual viable cells (%) 20 μM (SYBR Green I/PI assay): seven day old stationary phase; for Residual viable cells (%) 20 μM (SYBR Green I/PI assay) / Residual viable cells (SYBR Green I/PI assay): 7 days; for Residual viable cells (SYBR Green I/PI assay): 50 μM, seven day old stationary phase culture
[4] = system: round body form of B. burgdorferi; assay: SYBR Green I/PI assay on amoxicillin-induced round body form
[5] = read-out: Residual viable cells (%) 50 μM (epifluorescence microscope counting)
[6] = read-out: Residual viable cells (epifluorescence microscope counting)
[7] = read-out: Residual viable cells (SYBR Green I/PI assay), 50 μM, seven day old stationary phase culture, 7 days
[8] = read-out: Residual viable cells (SYBR Green I/PI assay)

Compound: CC1OC(CC(=O)O)CC2=C1C(=O)c1c(O)cccc1C2=O (stereo not drawn) [NSC267461, Nanaomycin]
- MIC ([1]; Borreliella burgdorferi, read-out: MIC): 0.76 to 1.57 µg/mL (≈ 2.51 to 5.19 µM)
- viability at 50 µM ([2]; read-out: Activity against persisters (residual viable cell percentage)): 26%
- viability at 20 µM [2]: 45%
- viability at 50 µM [2, 5]: 26%
- viability at 50 µM [2, 6]: 26%
- viability at 20 µM ([3]; read-out: Residual viable cells (%) 20 μM (SYBR Green I/PI assay), 20 μM, seven day old stationary phase, 7 days): 39%
- viability at 50 µM [3, 7]: 34%

Compound: C[C@]1(Cn2ccnn2)[C@H](C(=O)O)N2C(=O)C[C@H]2S1(=O)=O [tazobactam]
- sensitivity of log phase / multiplying B. burgdorferi (words, FIG. 12) [1]: less potent

Compound: N=C(Nc1nc(-c2ccccn2)cc2ccccc12)c1ccccn1 [NSC637578, N-[3-(2-Pyridyl)isoquinolin-1-yl]-2-pyridinecarboxamidine]
- viability at 50 µM [2, 6]: 26%
- viability at 50 µM [3, 8]: 46%

Compound: O=C1c2cccc(Sc3ccccc3)c2C(=O)c2c(Sc3ccccc3)cccc21 [NSC156516, 1,8-Di(phenylthio)anthraquinone]
- viability at 50 µM [2, 6]: 50%
- viability at 50 µM [3, 7]: 46%

Compound: O=C1c2ccccc2C(=O)c2c(O)c(NCCNCCO)cc(O)c21 [NSC316157, 9,10-Anthracenedione, 1,4-dihydroxy-2-[[2-[(2-hydroxyethyl)amino]ethyl]amino]-]
- viability at 50 µM [2, 6]: 23%
- viability at 50 µM [3, 8]: 0%

Compound: C=CCNc1ncnc2sc(SC)nc12 [NSC343783, N-Allyl-2-(methylthio)[1,3]thiazolo[5,4-d]pyrimidin-7-amine]
- viability at 50 µM [2, 6]: 20%
- viability at 50 µM [3, 8]: 67%

Compound: O=c1c(O)c(-c2ccc(O)c(O)c2)oc2cc(O)ccc12 [NSC407010, 2-(3,4-dihydroxyphenyl)-3,7-dihydroxy-4H-1-benzopyran-4-one]
- viability at 50 µM [2, 6]: 38%
- viability at 50 µM [3, 7]: 39%

Compound: Cc1cc(C(=C2C=CC(=N)C=C2)c2ccc(N)cc2)ccc1N [NSC93739, 2-Methyl-4,4′-[(4-imino-2,5-cyclohexadien-1-ylidene)methylene]dianiline hydrochloride]
- viability at 20 µM [2]: 77%
- viability at 50 µM [2, 5]: 43%
- viability at 50 µM [2, 6]: 43%
- viability at 20 µM ([3]; read-out: Residual viable cells (%) 20 μM (SYBR Green I/PI assay)): 0%
- viability at 50 µM [3, 8]: 0%

Compound: CCN(CC)c1ccc2cc3ccc(=[N+](CC)CC)cc-3oc2c1.[Cl-] [NSC44690, Pyronin B]
- MIC [1]: 1.8 to 3.6 µg/mL

Compound: Cc1ncc([N+](=O)[O-])n1CCO [Metronidazole]
- sensitivity of log phase / multiplying B. burgdorferi (words, FIG. 12) [1]: less potent
- viability at 50 µM ([4]; Borreliella burgdorferi, 168 h, read-out: Residual viable cells (SYBR Green I/PI assay)): 33%
- Ratios of green/red fluorescence, Primary screening ([4]; round body form, 50 μM, 7 days): 6.23
- Ratios of green/red fluorescence, Rescreening (first column) ([4]; round body form, 50 μM, 7 days): 6.30
- Ratios of green/red fluorescence, Rescreening (second column) ([4]; round body form, 50 μM, 7 days): 6.31

Compound: Cc1c2cc[n+](CCN3CCCCC3)cc2c(C)c2c1[nH]c1ccc(O)cc12 [NSC311153, 9-Hydroxy-2-(2-piperidinylethyl)ellipticinium acetate]
- viability at 50 µM [2, 6]: 26%
- viability at 50 µM [3, 8]: 45%

Compound: CC[C@@]1(O)C[C@H](O[C@H]2C[C@H](N(C)C)[C@H](O)[C@H](C)O2)c2c(cc3c(c2O)C(=O)c2c(O)ccc(O)c2C3=O)[C@H]1C(=O)OC [NSC267229, Pyrromycin]
- MIC [1]: 0.37 to 0.73 µg/mL
- Residual viable cells (%) 20 μM (epifluorescence microscope counting) [2]: 20%
- Residual viable cells (epifluorescence microscope counting) [2]: 21%
- Residual viable cells (%) 50 μM (epifluorescence microscope counting) [2]: 21%
- Activity against persisters (residual viable cell percentage) ([2]; stationary phase persisters): 21%
- Residual viable cells (%) 20 μM (SYBR Green I/PI assay) [3]: 6%
- Residual viable cells (SYBR Green I/PI assay) [3]: 0%

Compound: Nogalamycin [NSC70845]
- Residual viable cells (%) 20 μM (epifluorescence microscope counting) [2]: 15%
- Residual viable cells (epifluorescence microscope counting) [2]: 15%
- Residual viable cells (%) 50 μM (epifluorescence microscope counting) [2]: 15%
- Residual viable cells (%) 20 μM (SYBR Green I/PI assay) [3]: 3%
- Residual viable cells (SYBR Green I/PI assay) [3]: 0%

Compound: O/N=C(/c1ccccc1)c1ccc2c3c(cccc13)CC2 [NSC137399, 1-(1,2-Dihydro-5-acenaphthylenyl)-N-hydroxy-1-phenylmethanimine]
- viability at 50 µM [2, 6]: 41%
- viability at 50 µM [3, 8]: 51%

Reference: US20170058314A1, “NOVEL METHODOLOGY FOR IDENTIFYING ANTI-PERSISTER ACTIVITY AND ANTIMICROBIAL SUSCEPTIBILITY FOR BORRELIA BURGDORFERI AND OTHER BACTERIA” (priority 2014, published 2017)
